# Patent US8802053B2 (Brookhaven Science Associates, LLC, priority 2009, dated 2014)
# Legend:
# [1] = Plasma analysis for fraction of 11C-isomers (unchanged parent tracer by HPLC); assay type: in vivo; conditions: baboon plasma
# Procedure: Plasma analysis for fraction of ^11C-isomers: Plasma samples at 1, 5, 10, 30 and 60 min were analyzed by HPLC to determine the percent of residual parent tracer. Plasma samples from selected time points were added to 300 μL acetonitrile containing an appropriate amount of standard, then subjected to cell disruption using a Polytron (Brinkmann Instruments), centrifuged for 4 minutes and decanted into 300 μL water. HPLC conditions were 60:40 0.1 M ammonium formate:acetonitrile, Waters μBondapak column (3.9×300 mm), flow 1.3 mL/min, UV detection at 254 nm. Supernatants were injected onto the column, reserving a measured amount to determine recovery of injected activity from the column. […] Five fractions were collected from each injection, 3 before the parent peak, the parent peak, and finally the tail of the parent peak. The percent unchanged tracer was determined by dividing the sum of the last 2 peaks by the sum of all HPLC fractions.
# brain aromatase = experiment: PET studies in baboons (brain imaging); assay type: in vivo, baboon
# Procedure: PET Studies in Baboons: All animal studies were reviewed and approved by the Brookhaven Institutional Animal Care and Use Committee. […] Baboons were anesthetized with ketamine (10 mg/kg) and then intubated and ventilated with a mixture of isoflurane (Forane, 1-4%) and nitrous oxide (1500 mL/min) and oxygen (800 mL/min). Animals were transported to and from the PET facility in a temperature controlled transfer cage and a member of the staff attended them while they recovered from anesthesia. Catheters were inserted in a popliteal artery and radial arm vein for arterial sampling a radiotracer injection respectively. Dynamic PET imaging was carried out on a Siemen's HR+ high resolution, whole body PET scanner (4.5×4.5×4.8 mm at center of field of view) in 3D acquisition mode, 63 planes. A transmission scan was obtained with a ^68Ge rotating rod source before the emission scan to correct for attenuation before each radiotracer injection. […] Dynamic scanning was carried out for 90 minutes with the following time frames (1×10 sec; 12×5 sec; 1×20 sec; 1×30 sec; 8×60 sec; 4×300 sec; 8×450 sec). […] During the PET scan, baboons were monitored for heart rate, respiration rate, PO2 and temperature. Animals were allowed 4 weeks between studies to recover from anesthesia and blood sampling.
# Image Analysis: Time frames were summed over the 90 minute experimental period. Regions of interest were placed over the amygdala, the preoptic area, frontal cortex, cerebellum and thalamus on the summed image and then projected onto the dynamic images to obtain time activity curves. Regions occurring bilaterally were averaged. Carbon-11 concentration in each region of interest was divided by the injected dose to obtain the % dose/cc. The summed PET images from one baboon was co-registered with a 3D MR image of the same animal using PMOD (PMOD Technologies, Ltd.).
# brain aromatase enzymes = conditions: Kil et al. (2008); cited from earlier work
compound,measurement,setting,value
[11CH3]n1nc2ccc(C(c3ccc(Cl)cc3)n3cncn3)cc2n1 (stereo not drawn) [N-2 isomer],appearance of labeled metabolites in plasma,[1],very rapid appearance of labeled metabolites
same,disappearance of parent labeled compound from plasma,[1],rapid rate of disappearance of the parent labeled compound from plasma
same,distribution to aromatase-rich brain regions,brain aromatase; baboon brain,no specific distribution to aromatase-rich brain regions
same,PET image uptake in amygdala and preoptic area,"brain aromatase; baboon brain, images summed 15-90 min after injection, FIG. 3",no specific uptake in amygdala and preoptic area
N#Cc1ccc(C(c2ccc(C#N)cc2)n2cncn2)cc1 [[^11C]letrozole],blocking of uptake by pretreatment with unlabeled letrozole,brain aromatase enzymes,failed to block uptake
same,brain uptake and clearance,brain aromatase enzymes,rapidly taken up in the brain and was then rapidly cleared
"N#Cc1ccc(C(c2ccc(C#N)cc2)n2cncn2)cc1 [letrozole, reference compound]",effect of pretreatment on [N-methyl-11C]vorozole accumulation in brain,"brain aromatase; blocking dose 0.1 mg/kg, 5 min prior, baboon",reduced [N-methyl-^11C]vorozole accumulation in all brain regions examined
